Legend:
Assay in all cases: relative viability (nuclei count vs DMSO), 5 days (fraction); higher = more cells survive
Omipalisib + Palbociclib = compound: COc1ncc(-c2ccc3nccc(-c4ccnnc4)c3c2)cc1NS(=O)(=O)c1ccc(F)cc1F [Omipalisib] + CC(=O)c1c(C)c2cnc(Nc3ccc(N4CCNCC4)cn3)nc2n(C2CCCC2)c1=O [Palbociclib] (partner 0.5 µM)
Procedure, shortened: (§1)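 After 5 days of treatment, lung cancer cells in 1536-well plates were fixed and stained in a single step (final 0.05% Triton X-100, 1% formaldehyde, 1 ug/ml Hoechst) and their nuclei counted on 4× images. Treatment had been applied by pin tool the day after seeding as one drug alone or as a fixed anchor-drug dose with five library-drug doses (not always all listed) in √10 steps. Relative viability is the nuclei count of treated wells divided by that of vehicle wells, and values are medians of duplicate plates.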

Omipalisib + Luminespib = compound: COc1ncc(-c2ccc3nccc(-c4ccnnc4)c3c2)cc1NS(=O)(=O)c1ccc(F)cc1F [Omipalisib] + CCNC(=O)c1noc(-c2cc(C(C)C)c(O)cc2O)c1-c1ccc(CN2CCOCC2)cc1 [Luminespib] (partner 0.01 µM)
Procedure, shortened: as §1

Omipalisib + Pictilisib = compound: COc1ncc(-c2ccc3nccc(-c4ccnnc4)c3c2)cc1NS(=O)(=O)c1ccc(F)cc1F [Omipalisib] + CS(=O)(=O)N1CCN(Cc2cc3nc(-c4cccc5[nH]ncc45)nc(N4CCOCC4)c3s2)CC1 [Pictilisib] (partner 1 µM)
Procedure, shortened: as §1

Omipalisib + Dasatinib = compound: COc1ncc(-c2ccc3nccc(-c4ccnnc4)c3c2)cc1NS(=O)(=O)c1ccc(F)cc1F [Omipalisib] + Cc1nc(Nc2ncc(C(=O)Nc3c(C)cccc3Cl)s2)cc(N2CCN(CCO)CC2)n1 [Dasatinib] (partner 0.075 µM)
Procedure, shortened: as §1

Omipalisib + Phenformin = compound: COc1ncc(-c2ccc3nccc(-c4ccnnc4)c3c2)cc1NS(=O)(=O)c1ccc(F)cc1F [Omipalisib] + N=C(N)NC(=N)NCCc1ccccc1 [Phenformin] (partner 250 µM)
Procedure, shortened: as §1

Omipalisib + Vorinostat = compound: COc1ncc(-c2ccc3nccc(-c4ccnnc4)c3c2)cc1NS(=O)(=O)c1ccc(F)cc1F [Omipalisib] + O=C(CCCCCCC(=O)Nc1ccccc1)NO [Vorinostat] (partner 1 µM)
Procedure, shortened: as §1

Cell Line	relative viability (Omipalisib + Palbociclib; first compound 0.0003 µM)	relative viability (Omipalisib + Palbociclib; first compound 0.003 µM)	relative viability (Omipalisib + Palbociclib; first compound 0.03 µM)	relative viability (Omipalisib + Luminespib; first compound 0.0003 µM)	relative viability (Omipalisib + Luminespib; first compound 0.003 µM)	relative viability (Omipalisib + Luminespib; first compound 0.03 µM)	relative viability (Omipalisib + Pictilisib; first compound 0.0003 µM)	relative viability (Omipalisib + Pictilisib; first compound 0.003 µM)	relative viability (Omipalisib + Pictilisib; first compound 0.03 µM)	relative viability (Omipalisib + Dasatinib; first compound 0.0003 µM)	relative viability (Omipalisib + Dasatinib; first compound 0.003 µM)	relative viability (Omipalisib + Dasatinib; first compound 0.03 µM)	relative viability (Omipalisib + Phenformin; first compound 0.0003 µM)	relative viability (Omipalisib + Phenformin; first compound 0.003 µM)	relative viability (Omipalisib + Phenformin; first compound 0.03 µM)	relative viability (Omipalisib + Vorinostat; first compound 0.0003 µM)	relative viability (Omipalisib + Vorinostat; first compound 0.003 µM)	relative viability (Omipalisib + Vorinostat; first compound 0.03 µM)
LOU-NH91	0.586	0.536	0.52	0.345	0.386	0.337	0.511	0.487	0.441	0.521	0.381	0.355	0.738	0.522	0.504	1.02	0.679	0.582
NCI-H1944	0.264	0.25	0.169	0.686	0.417	0.296	0.363	0.301	0.28	0.194	0.17	0.156	0.183	0.148	0.126	0.469	0.359	0.29
NCI-H1993	0.547	0.391	0.393	0.806	0.465	0.485	0.837	0.861	0.912	0.498	0.545	0.486	0.558	0.552	0.586	0.788	0.162	0.378
HCC-15	0.748	0.614	0.521	0.331	0.383	0.206	0.698	0.599	0.702	0.552	0.349	0.42	0.427	0.372	0.306	0.816	0.651	0.489
HCC-827	0.471	0.381	0.266	0.588	0.302	0.194	0.864	0.974	0.533	0.194	0.233	0.147	0.402	0.343	0.271	0.864	0.682	0.438
UMC-11	0.332	0.272	0.299	0.913	0.775	0.742	0.702	0.425	0.67	0.445	0.455	0.422	0.338	0.329	0.316	0.416	0.281	0.264
NCI-H727	0.644	0.487	0.552	0.35	0.281	0.395	0.321	0.361	0.231	0.353	0.327	0.366	0.817	0.447	0.509	1.1	1.02	0.987
NCI-H2009	0.204	0.176	0.179	1.04	1.02	0.874	0.752	0.797	0.52	0.272	0.215	0.157	0.511	0.487	0.316	0.674	0.689	0.573
NCI-H2405	0.507	0.392	0.312	0.661	0.392	0.298	0.433	0.389	0.355	0.213	0.204	0.166	0.401	0.285	0.184	1	0.667	0.418
NCI-H23	0.391	0.239	0.211	0.225	0.219	0.218	0.45	0.373	0.401	0.826	0.468	0.332	0.773	0.635	0.576	0.541	0.297	0.234
NCI-H2347	0.393	0.432	0.4	0.304	0.267	0.339	0.682	0.612	0.449	0.286	0.253	0.26	0.329	0.226	0.244	0.638	0.475	0.368
NCI-H2170	0.301	0.236	0.173	0.543	0.178	0.189	0.3	0.137	0.278	0.517	0.426	0.453	0.459	0.432	0.375	0.716	0.51	0.418
PC-3 [JPC-3]	0.547	0.527	0.534	0.677	0.587	0.485	0.816	0.766	0.689	0.942	0.917	0.726	0.475	0.477	0.414	0.889	0.821	0.613
NCI-H1355	0.358	0.239	0.198	0.637	0.579	0.273	0.499	0.295	0.297	0.596	0.402	0.307	0.433	0.351	0.277	0.646	0.396	0.232
NCI-H3122	0.168	0.153	0.144	0.074	0.0541	0.089	0.538	0.472	0.475	0.641	0.0596	0.315	0.371	0.459	0.314	0.752	0.713	0.399
COR-L 105	0.406	0.432	0.415	0.703	0.796	0.591	0.349	0.356	0.299	0.301	0.287	0.186	0.468	0.458	0.289	0.853	0.809	0.568
NCI-H2085	0.553	0.479	0.33	0.386	0.352	0.291	0.416	0.474	0.436	0.258	0.194	0.227	0.869	0.429	0.303	0.815	0.701	0.436

Cell Line	relative viability (Omipalisib + Palbociclib; first compound 0.0003 µM)	relative viability (Omipalisib + Palbociclib; first compound 0.003 µM)	relative viability (Omipalisib + Palbociclib; first compound 0.03 µM)	relative viability (Omipalisib + Luminespib; first compound 0.0003 µM)	relative viability (Omipalisib + Luminespib; first compound 0.003 µM)	relative viability (Omipalisib + Luminespib; first compound 0.03 µM)	relative viability (Omipalisib + Pictilisib; first compound 0.0003 µM)	relative viability (Omipalisib + Pictilisib; first compound 0.003 µM)	relative viability (Omipalisib + Pictilisib; first compound 0.03 µM)	relative viability (Omipalisib + Dasatinib; first compound 0.0003 µM)	relative viability (Omipalisib + Dasatinib; first compound 0.003 µM)	relative viability (Omipalisib + Dasatinib; first compound 0.03 µM)	relative viability (Omipalisib + Phenformin; first compound 0.0003 µM)	relative viability (Omipalisib + Phenformin; first compound 0.003 µM)	relative viability (Omipalisib + Phenformin; first compound 0.03 µM)	relative viability (Omipalisib + Vorinostat; first compound 0.0003 µM)	relative viability (Omipalisib + Vorinostat; first compound 0.003 µM)	relative viability (Omipalisib + Vorinostat; first compound 0.03 µM)
ChaGo-K-1	0.853	0.843	0.708	0.615	0.593	0.503	0.635	0.652	0.809	0.657	0.583	0.473	0.486	0.401	0.406	0.732	0.619	0.675
NCI-H460	0.147	0.0934	0.0384	0.0375	0.0227	0.0165	0.419	0.254	0.316	0.385	0.288	0.0813	0.461	0.24	0.0524	0.653	0.617	0.0977
NCI-H650	0.297	0.275	0.222	0.81	0.592	0.378	0.867	0.762	0.631	0.469	0.317	0.266	0.443	0.401	0.332	0.325	0.337	0.186
NCI-H322M	0.427	0.446	0.449	0.518	0.517	0.298	0.467	0.577	0.313	0.234	0.245	0.257	0.739	0.57	0.453	0.922	0.765	0.622
A-427	0.501	0.49	0.455	0.857	0.678	0.863	0.729	0.697	0.744	0.686	0.434	0.625	0.382	0.224	0.337	0.885	0.877	0.867
BEN	0.434	0.444	0.452	0.274	0.276	0.288	0.513	0.378	0.412	0.277	0.3	0.307	0.259	0.277	0.27	0.502	0.498	0.452
NCI-H2087	0.247	0.219	0.146	0.166	0.14	0.158	0.916	0.692	0.739	0.8	0.566	0.614	0.43	0.267	0.289	0.683	0.549	0.29
PC-14	0.521	0.614	0.327	0.154	0.143	0.16	0.749	0.619	0.383	0.31	0.237	0.079	0.537	0.639	0.368	0.683	0.527	0.373
COR-L23	0.286	0.246	0.212	0.616	0.608	0.277	0.723	0.709	0.449	0.487	0.323	0.239	0.461	0.508	0.406	0.404	0.377	0.242
NCI-H1650	0.274	0.29	0.261	0.179	0.182	0.169	0.401	0.556	0.564	0.326	0.237	0.189	0.371	0.257	0.168	0.501	0.287	0.379
SK-LU-1	0.387	0.329	0.306	0.206	0.199	0.19	0.685	0.504	0.511	0.175	0.121	0.109	0.47	0.299	0.273	0.758	0.561	0.535
LK-2	0.421	0.203	0.225	0.153	0.2	0.174	0.446	0.306	0.445	0.231	0.151	0.169	0.532	0.128	0.144	0.276	0.18	0.154
NCI-H2023	0.383	0.213	0.0832	0.619	0.44	0.155	0.204	0.181	0.179	0.446	0.213	0.114	0.379	0.275	0.164	0.356	0.454	0.161
LC-2-ad	0.488	0.458	0.299	0.825	1.05	0.461	0.517	0.582	0.238	0.503	0.47	0.168	0.438	0.368	0.258	0.67	0.575	0.303
LU99A	0.396	0.24	0.183	0.201	0.206	0.24	0.303	0.242	0.265	0.482	0.331	0.267	0.802	0.695	0.578	0.441	0.353	0.228
HARA	0.267	0.181	0.169	0.605	0.621	0.0924	0.464	0.661	0.354	0.291	0.288	0.187	0.539	0.334	0.332	0.453	0.459	0.201
NCI-H838	0.221	0.184	0.146	0.332	0.269	0.203	0.422	0.393	0.313	0.263	0.223	0.23	0.566	0.397	0.195	0.678	0.639	0.557

From the supplement of paper PMC10307832
